In US6951887B2 (The Research Foundation of State University of New York, priority 1998, dated 2005):

Tests used:
[1] = tested on: A549 (Lung); test: killing of cultured cells, A549; assay type: cell-based; set-up: key to cells killed by treatment: “+” indicates that the cells were killed by treatment; “−” indicates that they were not; “+/−” indicates a slow marginal response seen only in a few special cases with fibroblasts experimentally transformed by introduction of the ras oncogene
Source text: (§1) Table 1: Summarized are the responses of cells in culture to killing by example members of the family of blocked lipoate derivatives that are the object of this invention as well as one control compound (dihydroxyoctanoic acid). At right is indicated the specific cell line followed by the tissue of origin of the cell line. Across the top are listed the specific compounds tested. Each blocked lipoate derivative was used at two to fourfold above its threshold killing concentration. [These concentrations range form 0.15 mM (60 ug/ml or 60 mg/kg) to 2.5 mM (800 ug/ml or 800 mg/kg) (see EXAMPLE 11).] […] “+/−” indicates a slow marginal response seen only in a few special cases with fibroblasts experimentally transformed by introduction of the ras oncogene (EXAMPLE 10).
(§2) First, each cell type to be tested was plated at low densities in the wells of a standard 6×24 well tissue culture plate. (Multiple wells are seeded for each cell type.)
(§3) Second, the cells were allowed to grow to moderate densities. Transformed cells are in contact and non-transformed cells are contact-inhibited under these conditions.
(§4) Third, the lipoate derivatives to be tested were added to individual wells. In these experiments each compound was added at two to fourfold above the threshold killing concentration for cancer cells (EXAMPLE 11).
(§5) Fourth, cells were monitored over the next several days.

[2] = tested on: MCF 7 (Breast); test: killing of cultured cells, MCF 7; assay type: cell-based; set-up: key: “+” indicates that the cells were killed by treatment; “−” indicates that they were not; “+/−” indicates a slow marginal response seen only in a few special cases with fibroblasts experimentally transformed by introduction of the ras oncogene; settings: compound at two to fourfold above its threshold killing concentration
Source text: as §1, §2, §3, §4, §5

[3] = tested on: B16 (Skin); test: killing of cultured cells, B16; assay type: cell-based; set-up: key: “+” indicates that the cells were killed by treatment; “−” indicates that they were not; “+/−” indicates a slow marginal response seen only in a few special cases with fibroblasts experimentally transformed by introduction of the ras oncogene; settings: compound at two to fourfold above its threshold killing concentration
Source text: as §1, §2, §3, §4, §5

[4] = tested on: NIH 3T3 ras transformed; test: killing of cultured cells, ras-transformed NIH 3T3 (T24); assay type: cell-based; set-up: key to cells killed by treatment: “+” indicates that the cells were killed by treatment; “−” indicates that they were not; “+/−” indicates a slow marginal response seen only in a few special cases with fibroblasts experimentally transformed by introduction of the ras oncogene
Source text: as §1, §2, §3, §4, §5
(§6) NIH-3T3 cells are relatively normal, noncancerous cells. However, if an activated allele of the ras oncogene is introduced into these cells they become highly malignant (cancerous) as assessed by several assays (REFERENCE).

[5] = tested on: NIH 3T3 parental; test: killing of cultured cells, parental NIH 3T3; assay type: cell-based; settings: 120 ug/ml, ca. 24 hours of treatment
Source text: as §1, §2
Second, the cells were allowed to grow to moderate densities. Transformed cells are in contact and non-transformed cells are contact-inhibited under these conditions. […]
as §5, §6

[6] = tested on: HeLa (cervical cancer) cells; test: TUNEL assay for apoptosis; assay type: cell-based; settings: ca. 20-24 hours, ca. twofold above threshold killing concentration
Source text: In order to understand the experiment described in this Example is necessary to review details concerning the specific assay used in the experiments. Nuclear DNA of cells is normally present in the very long molecules making up chromosomes. These very long polymer molecules have only extremely rare free ends. In contrast, after the induction of apoptosis the cell begins to destroy itself and, in the process, introduces an extremely large number of breaks in its DNA in the process of reducing it to its small monomer constituents. The appropriate enzyme —terminal transferase—will add nucleotides to the free ends of DNA molecules. Moreover, this enzyme will use monomers (nucleotides) for this addition reaction that have highly fluorescent groups added to them. Thus, if the nuclei of normal cells—with few free DNA ends—are exposed to terminal transferase and fluorescent monomers very little fluorescence is added to these nuclei. In contrast, when these components are added to the nuclei of cells undergoing apoptosis and very large number of fluorescent monomers are added—to the very many DNA ends that are present—resulting in a massive introduction of fluorescence. The conventional assay based on these properties is referred by the acronym TUNEL. […] HeLa cancerous cells were plated in several wells in a tissue culture dish. […]

[7] = tested on: B-16 melanoma; test: B-16 system, subcutaneous tumors; assay type: in vivo, mouse; settings: 50 mg/kg IP twice daily plus twice daily injection directly into the tumor mass
Source text: The B-16 melanoma strain was introduced either subcutaneously or intraperitoneally into individuals of the C57/BL syngeneic mouse strain (7). When left untreated such mice develop massive tumors in the immediate area of injection as well as secondary metastases throughout the animal—including in the liver and the lungs. These malignant growths result in the early death of the animals. Moreover, the resulting malignant growths are made up of darkly pigmented malignant melanocytes—making their assessment convenient and highly reliable. We will henceforth refer to this as the “B-16 system”.
Second, a group of animals were injected at a subcutaneous site with B-16 cells. […] As this time, one group oL animals (experimentals) began a twice-daily series of injections of the bis-acetyl lipoate derivative (100 mg/kg in 100 ul of isotonic saline) and a second set (controls) of corresponding injections of the saline solvent alone. [See EXAMPLES 2, 8 and 11 for the details of bis-acetyl lipoate derivative.]
Third, in several animals subcutaneous tumors were produced as in the preceding paragraph. After the tumors had grown to visible, palpable size, these animals received both a twice daily IP (systemic) dose of 50 mg/kg of bis-benzoyl lipoate as well as a twice daily direct injection a second dose of the same volume directly into the tumor mass.

O=C(O)CCCCC(CCSC(=O)c1ccccc1)SC(=O)c1ccccc1 (stereo not shown) [bis-benzoyl lipoate, 6,8-bisbenzoylmercaptooctanoic acid]
cell killing, lung cancer cells (FIG. 1) ([1]; 120 ug/ml, ca. 48 hours): efficiently killed | cells killed by treatment ([1]; A549, Lung, compound at two to fourfold above its threshold killing concentration): + | cells killed by treatment [2]: + | cells killed by treatment [3]: + | cancerous (transformed) cells killed (FIG. 2) ([4]; 120 ug/ml, 24 hours of treatment, T24 ras-transformed NIH3T3): ca. 50% | killing of transformed cells (FIG. 2) ([4]; 120 ug/ml, ca. 48 hours of treatment): almost entirely irradicated | cells killed by treatment ([4]; NIH 3T3 ras transformed, compound at two to fourfold above its threshold killing concentration): + | effect on noncancerous parental NIH3T3 cells (FIG. 2) [5]: unaffected | induction of apoptosis (TUNEL) [6]: induces apoptosis | response of subcutaneous tumor [7]: especially robust response
